Read-outs that look alike come from different tables or passages of the source.
How the values were obtained:
[1] = target: HSV-2 thymidine kinase (TK) (Human herpesvirus 2, UniProt P04407); assay: Inhibition of HSV-2 thymidine kinase (3H-thymidine phosphorylation, DEAE-cellulose disc assay); format: biochemical
Procedure: (§1) In this test procedure, the assay mixture contains […] Tris HCl, pH 8, 5 mmol magnesium chloride, 5 mmol ATP, […] 3H-thymidine (50 Ci/mmol), suitably diluted enzyme preparation and various concentrations of test compounds in a total volume of […]. Assays are incubated at 37° C. for 30 minutes and the reaction is terminated by immersion in a boiling water bath for 2 minutes. […] aliquots from each assay are then dried on to DEAE-cellulose paper discs and the unphosphorylated 3H-thymidine is removed by washing in 4 mmol ammonium formate. The radioactivity remaining bound to the discs is then measured by scintillation spectrophotometry. The degree of inhibition at each concentration of test compound is expressed as a percentage of the control reaction (100%) after subtracting a measured blank value which represents the amount of radioactivity bound to the disc from a reaction containing heat-inactivated enzymes. The IC50 value, namely the concentration of test compound which inhibits enzyme activity by 50%, is then calculated.

[2] = target: HSV-1 thymidine kinase (TK) (Human herpesvirus 1, UniProt P0DTH5); assay: Inhibition of HSV-1 thymidine kinase (3H-thymidine phosphorylation, DEAE-cellulose disc assay); format: biochemical
Procedure: as §1

[3] = 37° C., 30 minutes, pH 8, 3H-thymidine substrate, read-out: Activity against HSV-2 TK IC50 (nmol)
[4] = 37° C., 30 minutes, pH 8, 3H-thymidine substrate, read-out: Activity against HSV-1 TK IC50 (nmol)

HSV-2 thymidine kinase (TK), sequence (P04407 whole entry): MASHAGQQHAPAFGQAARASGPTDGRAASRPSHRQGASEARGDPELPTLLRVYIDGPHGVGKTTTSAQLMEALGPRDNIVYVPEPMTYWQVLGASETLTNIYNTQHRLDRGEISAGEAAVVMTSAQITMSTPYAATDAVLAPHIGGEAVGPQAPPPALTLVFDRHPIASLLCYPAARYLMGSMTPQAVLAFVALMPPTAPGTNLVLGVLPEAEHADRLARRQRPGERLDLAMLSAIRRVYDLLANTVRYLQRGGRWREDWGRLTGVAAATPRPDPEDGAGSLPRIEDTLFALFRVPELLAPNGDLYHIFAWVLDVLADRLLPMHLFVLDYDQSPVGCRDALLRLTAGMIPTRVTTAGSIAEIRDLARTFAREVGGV
HSV-1 thymidine kinase (TK), sequence (P0DTH5 whole entry): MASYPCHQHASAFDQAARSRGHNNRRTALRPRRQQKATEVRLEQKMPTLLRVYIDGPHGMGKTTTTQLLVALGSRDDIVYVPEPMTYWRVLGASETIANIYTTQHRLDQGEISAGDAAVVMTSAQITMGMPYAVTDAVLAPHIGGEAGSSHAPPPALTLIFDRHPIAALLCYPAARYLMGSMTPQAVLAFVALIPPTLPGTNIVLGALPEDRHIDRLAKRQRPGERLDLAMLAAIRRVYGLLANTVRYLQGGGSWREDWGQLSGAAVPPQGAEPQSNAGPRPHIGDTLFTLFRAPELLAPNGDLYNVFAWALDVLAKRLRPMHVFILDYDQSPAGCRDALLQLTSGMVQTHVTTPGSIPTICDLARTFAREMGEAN

Compound | IC50 [1, 3] [nM] | IC50 [2, 4] [nM] | IC50 [1] [nM] | IC50 [2] [nM]
CC1(C)CC(=O)C2=C(C1)NC1=C(C(=O)CC(C)(C)C1)C2c1ccc(Cl)c(-n2cccc2)c1 [F, 9-[4-chloro-3-(1H-pyrrol-1-yl)phenyl]-3,4,6,7,9,10-hexahydro-3,3,6,6-tetramethyl-1,8(2H,5H)-acridinedione] | 0.18 | 0.44 |  | 
CCc1cn([C@H]2C[C@H](O)[C@@H](CNC(=O)C3c4ccccc4Oc4ccccc43)O2)c(=O)[nH]c1=O [2',5'-dideoxy-5-ethyl-5'-[(9-xanthenyl)carboxamido]uridine, reference compound] |  |  | 0.34 | 4.2
CC1(C)CC(=O)C2=C(C1)NC1=C(C(=O)CC(C)(C)C1)C2c1cccc(Oc2ccccc2)c1 [G, 3,4,6,7,9,10-hexahydro-3,3,6,6-tetramethyl-9-(3-phenoxyphenyl)-1,8(2H,5H)-acridinedione] | 1.1 | 5.8 |  | 
CC1(C)CC(=O)C2=C(C1)NC1=C(C(=O)CC(C)(C)C1)C2c1ccc(Cl)c(Oc2ccccc2)c1 [A, 9-(4-chloro-3-phenoxyphenyl)-3,4,6,7,9,10-hexahydro-3,3,6,6-tetramethyl-1,8(2H,5H)-acridinedione] | 0.095 | 0.3 |  | 
CC1(C)CC(=O)C2=C(C1)NC1=C(C(=O)CC(C)(C)C1)C2c1ccc(Br)cc1 [H, 9(4-Bromophenyl)-3,4,6,7,9,10-hexahydro-3,3,6,6-tetramethyl-1,8(2H,5H)-acidinedione] | 1.5 | 12 |  | 
CC1(C)CC(=O)C2=C(C1)NC1=C(C(=O)CC(C)(C)C1)C2c1ccc([N+](=O)[O-])c(OCc2ccccc2)c1 [J, 9-(3-benzyloxy-4-nitrophenyl)-3,4,6,7,9,10-hexahydro-3,3,6,6-tetramethyl-1,8(2H,5H)-acridinedione] | 0.38 | 0.9 |  | 

Second part, led by results:

IC50 [1, 3] [nM] | IC50 [2, 4] [nM] | Compound | IC50 [1] [nM] | IC50 [2] [nM]
0.27 | 0.52 | CC1(C)CC(=O)C2=C(C1)NC1=C(C(=O)CC(C)(C)C1)C2c1ccc(Cl)c(-c2ccccc2)c1 [C, 9-[6-chloro-3-(1,1'-biphenylyl)]-3,4,6,7,9,10-hexahydro-3,3,6,6-tetramethyl-1,8(2H,5H)-acridinedione] |  | 
0.19 | 0.8 | CC1(C)CC(=O)C2=C(C1)NC1=C(C(=O)CC(C)(C)C1)C2c1ccc(Cl)c(Oc2ccncc2)c1 [Compound I, 9-[4-chloro-3-(4-pyridyloxy)-phenyl]-3,4,6,7,9,10-hexahydro-3,3,6,6-tetramethyl-1,8(2H,5H)-acridinedione] |  | 
0.44 | 5.9 | CC1(C)CC(=O)C2=C(C1)NC1=C(C(=O)CC(C)(C)C1)C2c1ccc(Cl)c(F)c1 [E, 9-(4-chloro-3-fluorophenyl)-3,4,6,7,9,10-hexahydro-3,3,6,6-tetramethyl-1,8(2H,5H)-acridinedione] |  | 
0.64 | 9.4 | CC1(C)CC(=O)C2=C(C1)NC1=C(C(=O)CC(C)(C)C1)C2c1ccc(Cl)c(Cl)c1 [D, 9-(3,4-dichlorophenyl)-3,4,6,7,9,10-hexahydro-3,3,6,6-tetramethyl-1,8(2H,5H)-acridinedione] |  | 
0.54 | 2.6 | CC1(C)CC(=O)C2=C(C1)NC1=C(C(=O)CC(C)(C)C1)C2c1ccc(Cl)c(Sc2ccncc2)c1 [K] |  | 
0.12 | 0.56 | CC1(C)CC(=O)C2=C(C1)NC1=C(C(=O)CC(C)(C)C1)C2c1ccc(Cl)c(Sc2ccccc2)c1 [B, 9-(4-chloro-3-phenylthiophenyl)-3,4,6,7,9,10-hexahydro-3,3,6,6-tetramethyl-1,8(2H,5H)-acridinedione] |  | 
